Legend:
[1] = biological target: human thrombin (Homo sapiens, UniProt P00734); test: kinetic parameters for inhibition of human thrombin (progress-curve experiments, D-Phe-pipecolyl-Arg-p-nitroanilide); format: biochemical; details: substrate 100 μM, enzyme 20 pM; weighted means of two determinations
Procedure: The kinetic parameters of the [Cys^33 ]HV1--[Cys^33 ]HV1 dimer are determined from progress-curve experiments as described by Stone et al. Biochemistry (1986), 25, 4622-4628 and Braun et al. Biochemistry, (1988), 27, 6517-6522. For each determination, the formation of p-nitroaniline from D-Phe-pipecolyl-Arg-p-nitroanilide is monitored in six assays, one in absence of inhibitor and the others with different concentrations of inhibitor ranging from 10 to 60 pM for the [Cys^33 ]HV1--[Cys^33 ]HV1 dimer. The substrat concentration is 100 μM and the enzyme concentration is 20 pM.
The kinetic parameters are determined twice and values given in table 2 represent the weightened means of the estimates.

[2] = biological target: α-thrombin (Homo sapiens, UniProt P00734); test: antithrombin activity: inhibition of α-thrombin digesting Chromozym TH; format: biochemical
Procedure: The amino acid composition is determined by the dimethylaminoazobenzene sulfonyl (dabsyl) chloride method (Chang et al. Anal. Biochem. (1991), 197, 52-58.), which allows direct quantization of the disulfide content. The amino acid sequence was analyzed by an Applied Biosystem Inc. 470A protein sequencer. The antithrombin activity of desulphatohirudin derivatives was assessed by their ability to inhibit α-thrombin from digesting Chromozym TH (Boehringer Mannheim), using the described protocol (Stone et al. Biochemistry (1986), 25, 4622-4628; Chatrenet et al. J. Biol. Chem. (1992), 267, 3038-3043). The molecular weight of desulphatohirudin is […], determined by the laser desorption ionization mass spectrometry using a home-built instrument (Boernsen et al. Chimia (1990), 44, 412-416).

[3] = tested on: plasma APTT; test: ex vivo plasma APTT after subcutaneous administration in the rat; details: s.c. 1 ml/kg, dimer 4.5 mg/ml, HV1 3.0 mg/ml, mean±SEM, n=5
Procedure: (APTT=activated partial thrombin time)
[Cys^33 ]HV1--[Cys^33 ]HV1 dimer is dissolved in saline to a concentration of 4.5 mg/ml and unmodified hirudin-monomer is dissolved in saline to a concentration of 3.0 mg/ml (these doses are chosen based on the in vitro results in order to achieve a similar effect on APTT at 1 h). Solutions are administered subcutaneously to rats (1 ml/kg). At various times after administration, blood (2 ml) is collected by cardiac puncture directly into one tenth volume trisodium titrate solution (3.8% w/v) and immediately mixed. The anticoagulated blood is centrifuged at 2500 g for 20 min to obtain platelet free plasma.
Plasma samples are assayed for APTT using standard methods on the Instrumentation Laboratory ACL 300R coagulometer. The method for APTT determination utilizes the Instrumentation Laboratory ellagic acid test kit--plasma (50 μl) is incubated with ellagic acid activating reagent (50 μl) at 37° C. for 5 min prior to the addition of calcium chloride solution (50 μl of 25 mM solution) and the time taken for the plasma clot is recorded automatically, the end point being determined optically by the light scattered when the fibrin network formed (see table 1).
The results are expressed as a multiple of the means control APTT value and presented as mean±standard error of the mean (n=5).

Substance	10^8 k1 [1] [M^-1 s^-1]	thrombin inhibition (inhibitory activity, equal weight basis) ([2]; 1 nM desulphatohirudin, 1.5 nM α-thrombin) [%]	APTT as multiple of the mean control APTT value ([3]; 0 hours)	APTT as multiple of the mean control APTT value ([3]; 1 hour)	APTT as multiple of the mean control APTT value ([3]; 4 hours)	APTT as multiple of the mean control APTT value ([3]; 6 hours)	potency of thrombin inhibition, monomer versus dimer ([2]; comparison of Cys33 monomer and dimer)
HV1: unmodified desulphatohirudin variant 1 monomer, used as comparator	1.37 ± 0.03	82±5	1.00 ± 0.02 multiple of control APTT	2.44 ± 0.07 multiple of control APTT	1.43 ± 0.05 multiple of control APTT	0.95 ± 0.02 multiple of control APTT	–
Cys^33 monomer: mutant of recombinant desulphatohirudin HV1 with cysteine replacing aspartic acid at position 33 (SEQ ID NO: 8)	–	–	–	–	–	–	nearly indistinguishable (±3%)

From patent publication US5661001A, “High molecular weight desulphatohirudin” (Ciba-Geigy Corporation, priority 1993, dated 1997)
